The substances below were run against T1, SIRT2 (Homo sapiens, UniProt Q8IXJ6) (assay: fluorogenic enzyme kinetics with recombinant SIRT2 (Km)).
T1 sequence (Q8IXJ6 2-389): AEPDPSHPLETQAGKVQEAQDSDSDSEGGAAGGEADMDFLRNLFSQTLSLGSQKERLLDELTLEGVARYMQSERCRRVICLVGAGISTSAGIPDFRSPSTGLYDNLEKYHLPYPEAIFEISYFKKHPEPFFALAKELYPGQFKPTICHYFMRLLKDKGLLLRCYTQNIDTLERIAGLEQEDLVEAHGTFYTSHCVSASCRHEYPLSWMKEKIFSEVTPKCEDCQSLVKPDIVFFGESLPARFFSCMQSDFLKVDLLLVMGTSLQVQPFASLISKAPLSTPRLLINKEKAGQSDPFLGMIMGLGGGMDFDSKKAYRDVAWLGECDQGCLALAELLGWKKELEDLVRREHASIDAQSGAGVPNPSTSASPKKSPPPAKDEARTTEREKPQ
Format: biochemical

Row | Substance | Km [µM]
1 | Boc-Lys(3-F-propanoyl)-AMC [compound 1] | 55.5
2 | Boc-Lys(6-F-hexanoyl)-AMC [compound 2] | 44.9
3 | Boc-Lys(10-F-decanoyl)-AMC [compound 3] | 18
4 | Boc-Lys(12-F-dodecanoyl)-AMC [compound 4] | 8.07
5 | Boc-Lys(myristoyl)-AMC [compound 5] | 2.36
